Experimental findings from ChEMBL document CHEMBL3763138, “Synthesis and bioactivity of novel triazole incorporated benzothiazinone derivatives as antitubercular and antioxidant agent” (Bioorg Med Chem Lett, 2016) are described below.

The subject of data set [1] is A-431. Briefly: Antiproliferative activity against human A431 cells at 30 ug/ml after 48 hrs by MTT assay. Type of data set: cell-based. The following applies: a-431, 48 h.
For data set [2], the system named is A549. Briefly: (§1) Cytotoxicity against human A549 cells assessed as growth inhibition after 48 hrs by MTT assay. Format: cell-based. The following applies: a549, 48 h. Background: Tetrazolium assays rely on reduction of a dye to a coloured formazan, in cell work by metabolically active cells.
Data set [3] is described as follows: as §1. Format: cell-based. The following applies: A549 cells.
In data set [4] the test system is HeLa. In words: Antiproliferative activity against human HeLa cells at 10 ug/ml after 72 hrs by MTT assay. Type of data set: cell-based.
Data set [5] has as its system HeLa. In words: Antiproliferative activity against human HeLa cells at 3 ug/ml after 72 hrs by MTT assay. Type of data set: cell-based.
Data set [6] is described as follows: Antioxidant activity assessed as DPPH radical scavenging activity by spectrophotometric assay. Format: physicochemical. (In general: The DPPH test is a chemical assay of radical scavenging.)
The subject of data set [7] is Mycobacterium tuberculosis. In words: Antitubercular activity against Mycobacterium tuberculosis H37Ra ATCC 25177 at 3 ug/ml by XTT Reduction Menadione Assay. Format: functional.
The subject of data set [8] is HeLa. In words: Antiproliferative activity against human HeLa cells at 30 ug/ml after 72 hrs by MTT assay. Type of data set: cell-based.
Data set [9] has as its system A-431. Briefly: Antiproliferative activity against human A431 cells at 10 ug/ml after 48 hrs by MTT assay. Format: cell-based. The following applies: a-431, 48 h.
The test system of data set [10] is HeLa. In words: (§2) Cytotoxicity against human HeLa cells assessed as growth inhibition after 72 hrs by MTT assay. Format: cell-based. The following applies: hela, 72 h.
Data set [11] can be described thus: as §2. Type of data set: cell-based. The following applies: HeLa cells.
The nature of data set [12]: Cytotoxicity against human A431 cells assessed as growth inhibition after 48 hrs by MTT assay. Format: cell-based, A-431.
Data set [13] relates to A-431. Briefly: Antiproliferative activity against human A431 cells at 3 ug/ml after 48 hrs by MTT assay. The following applies: a-431, 48 h. Type of data set: cell-based.
The subject of data set [14] is A549. In words: Antiproliferative activity against human A549 cells at 10 ug/ml after 48 hrs by MTT assay. Format: cell-based. The following applies: a549, 48 h.
In data set [15] the test system is A549. In words: Antiproliferative activity against human A549 cells at 3 ug/ml after 48 hrs by MTT assay. Format: cell-based. The following applies: a549, 48 h.
For data set [16], the system named is Mycobacterium tuberculosis. Briefly: Antitubercular activity against Mycobacterium tuberculosis H37Ra ATCC 25177 at 10 ug/ml by XTT Reduction Menadione Assay. Type of data set: functional.
The subject of data set [17] is Mycobacterium tuberculosis. In words: Antitubercular activity against Mycobacterium tuberculosis H37Ra ATCC 25177 by XTT Reduction Menadione Assay. Type of data set: functional, organism-based.
The subject of data set [18] is Mycobacterium tuberculosis. Briefly: Antitubercular activity against Mycobacterium tuberculosis H37Ra ATCC 25177 at 30 ug/ml by XTT Reduction Menadione Assay. Type of data set: functional.
Data set [19] concerns A549. In words: Antiproliferative activity against human A549 cells at 30 ug/ml after 48 hrs by MTT assay. The following applies: a549, 48 h. Type of data set: cell-based.

Each structure is given as a SMILES string. ≈ marks a conversion by molar mass, not a printed value.

As a reminder, the GI50 is the concentration that inhibits growth by half. Broadly, the IC50 is the concentration that inhibits the measured activity by half. A word on the inhibition: it is the relative decrease from the control value, in per cent. A low value points to little suppression.

As for `O=C1CSc2ccccc2N1Cc1cn(Cc2cccc([N+](=O)[O-])c2)nn1`, the Activity is listed as 15.6% in data set [1]; -3% in data set [4]; 0% in data set [5]; 20.1% in data set [8]; 16.5% in data set [9]; 13.9% in data set [13]. Besides, the Activity in data set [14] was 0%; in data set [15], -9.71%; in [19], -11.78%. Further, the MIC in data set [2] and in [17] was above 30 µg/mL in each case. Moreover, the 50% growth inhibitory concentration (GI50) at 48 h in [3] and in [12] was above 30 µg/mL each time. Further, the figures for the IC50 in data set [6] and in data set [17] were 34.12 µg/mL (≈ 89.5 µM) and 12.4 µg/mL (≈ 32.4 µM), respectively. For the same compound, at 3 µg/mL the inhibition in [7] was 34.8%. The concentration for 50% growth inhibition (GI50) in data set [10] is above 30 µg/mL. Besides, the concentration for 50% growth inhibition (GI50) at 72 h in data set [11] is above 30 µg/mL. Moreover, the inhibition at 10 µg/mL in [16] came out at 48.9%. This compound yielded an inhibition at 30 µg/mL in [18] of 60.2%.
As for `O=C1CSc2ccccc2N1Cc1cn(Cc2ccc(Cl)cc2)nn1`, the Activity in data set [1] is 61.5%; in [4], 29.6%; in data set [5], 41.9%; in data set [8], 45.1%; in data set [9], 40.9%; in [13], 35%. For the same compound, the Activity in data set [14] is on record as 4.35%; in [15] it was 3.6%; in data set [19] it was 51.91%. Further, the MIC in data set [2] and in [17] was above 30 µg/mL throughout. Also, the GI50 at 48 h in data set [3] stood at 29.9 µg/mL (≈ 80.7 µM); in [12] it was 27.3 µg/mL (≈ 73.6 µM). For the same compound, the IC50 was determined as 44.29 µg/mL (≈ 119 µM) in [6] and 2.67 µg/mL (≈ 7.2 µM) in data set [17]. Moreover, in [7], testing at 3 µg/mL gave an inhibition of 52.1%. In addition, in data set [10], the GI50 was above 30 µg/mL. Moreover, in data set [11], the 50% growth inhibitory concentration (GI50) at 72 h was above 30 µg/mL. Besides, 10 µg/mL produced 75.3% inhibition in data set [16]. Moreover, in data set [18], testing at 30 µg/mL gave an inhibition of 65.8%.
Regarding `O=C1CSc2ccccc2N1Cc1cn(Cc2ccccc2Cl)nn1`, the Activity in [1] is 31.4%; in [4], 38.6%; in data set [5] it was 48.1%; in data set [8], 55.9%; in [9], 29.6%; in data set [13], 15.4%. Moreover, the values for the Activity in data set [14], in [15] and in data set [19] were -8.41%, 4.19% and 23.34%, respectively. Besides, the MIC in data set [2] and in data set [17] was above 30 µg/mL each time. The GI50 at 48 h in [3] and in [12] was above 30 µg/mL in each case. The IC50 in [6] was 16.35 µg/mL (≈ 44.1 µM); in data set [17], above 30 µg/mL. Also, at 3 µg/mL the inhibition in data set [7] was 41.9%. Moreover, the 50% growth inhibitory concentration (GI50) in data set [10] was above 30 µg/mL. Also, in [11], the GI50 at 72 h is above 30 µg/mL. This compound had an inhibition at 10 µg/mL in data set [16] of 74.9%. In [18], the inhibition at 30 µg/mL worked out at 37.8%.
For `Cc1cc(C(C)(C)C)c(O)c(C(C)(C)C)c1` [BUTYLATED HYDROXYTOLUENE], the IC50 in data set [6] came to 16.47 µg/mL (≈ 74.7 µM).
With `CC(=O)O[C@H]1C(=O)[C@@]2(C)[C@H]([C@H](OC(=O)c3ccccc3)[C@]3(O)C[C@H](OC(=O)[C@H](O)[C@@H](NC(=O)c4ccccc4)c4ccccc4)C(C)=C1C3(C)C)[C@]1(OC(C)=O)CO[C@@H]1C[C@@H]2O` [PACLITAXEL], the MIC in [2] amounted to 0.039 µg/mL (≈ 0.0457 µM). Further, the GI50 at 48 h in data set [3] is below 0.0023 µg/mL; in data set [12] it was 0.0023 µg/mL (≈ 0.00269 µM). Also, the GI50 at 72 h in data set [11] was 0.14 µg/mL (≈ 0.164 µM).
